Data: patent US20060111335A1, “Photoactivated anti-viral and anti-cancer agent” (priority 2002, published 2006)

Assays:
SINV genomic RNA = assay: Immunofluorescence assay for SINV capsid protein translated from irradiated viral RNA in BHK cells; type: cell-based, Sindbis virus; details: RNA from virus irradiated with compound
Method: An immunofluorescence assay was also employed to detect the presence of SINV capsid protein newly translated from the irradiated viral genomic RNA. For these experiments the virus solutions had to be 10 log10 pfu/mL, which is a virus concentration 3 orders of magnitude higher than that used in the previous experiments. Also, the DPPZPHEN solutions had to be prepared in DMSO to maintain the ratio of drug to virus as in the previous experiments. […] SINV RNA from virus that had been either incubated in the dark or irradiated with DPPZPHEN was isolated and transfected into baby hamster kidney cells as described above. Following electroporation, the cells were plated on coverslips and incubated at 37° C. for 12 hours. The cells on the coverslips were then fixed with methanol for 15 minutes and washed twice with 1×PBS buffer. They were then incubated with anti-CP (SINV) polyclonal antibody (Owen et al., J. Virol., 70:2757-2763 (1996)) for 45 minutes at 37° C. After washing three times with 1×PBS buffer the cells were incubated with fluorescein-5-isothiocyanate (FITC) conjugated goat anti-rabbit secondary antibody (obtained from Kirkegaard and Perry, Gaithsburg, Md.) at 37° C. for 45 minutes. […] They were viewed under a Nikon Eclipse TE200 with a TE-FM Epi-fluorescence attachment.

M109 cells = assay: Phototoxicity to M109 tumor cells, MTT assay; type: cell-based, mouse; details: dark, zero time point
Method: Photolysis with Tumor Cells.
Procedures for cell maintenance, cell plating, drug incubation, photolysis and MTT assay are all same as that used for the KB cell lines. A small amount of dark toxicity was observed (about 15%). A considerable amount of killing occurs with light alone after 30 and 40 minutes of irradiation (FIG. 10).

SINV = assay: Photoinactivation of SINV, virus infectivity; type: cell-based, Sindbis virus
Method: (§1) General. The quantity of DNA was determined by the Burton assay (Burton, Biochem. J., 62:315-322 (1956)), and its rhodium content was quantitated using flame atomic absorption spectroscopy (AA). The equilibrium constant for interaction between DPPZPHEN and CT-DNA in the dark was calculated from UV-Vis absorption titration measurements at 380 nm (Wolfe et al., Biochem., 26:6392-6396 (1987); Schemel et al., Biopolymers, 10:465-480 (1971)). Cell viability was determined using the MTT assay (Denizot et al., J. Immunol. Methods, 89:271-277 (1986)). SINV was purified on sucrose gradients as previously described (Owen et al., J. Virol., 70:2757-2763 (1996)). The titer was generally 7-8 log10 pfu/mL at the beginning of each experiment.
Photolysis with SINV. DPPZPHEN/SINV solutions were prepared by adding a 0.3 mL aliquot of a 600 μM DPPZPHEN stock solution in PBS to 3 mL of purified virus at a concentration of 7-8 log10 pfu/mL and bringing the total volume to 4 mL. The DPPZPHEN/SINV solutions were incubated for 2 hours prior to irradiation, following which 3 mL of the […] 100 μL were withdrawn over time and analyzed for virus infectivity. The inactivation rate constant was calculated using simple hit theory (Hiatt, Bacteriol. Rev., 28:150-163 (1964); Houghtaling et al., Photochem. Photobiol., 71:20-28 (2000)). For the studies measuring infectivity of genome RNA, a 6.9 μL aliquot of 0.623 M DPPZPHEN stock solution in DMSO was added to a 100 μL of TE12 wild type […] solution (10 log10 pfu/mL) to obtain a 40 mM DPPZPHEN/virus solution. Aliquots of 50 μL were placed into 250 μL inserts, incubated for 2 hours, and either kept in the dark or irradiated for 60 minutes with light >330 nm. At the completion of the experiment all the samples were diluted with 6 mL 1×PBS buffer and precipitated for 2 hours at 4° C. with 10% PEG+NaCl (200 mM). The PEG precipitated virus was centrifuged at 4° C. for 30 minutes at 14,000 rpm, and the resulting pellet re-suspended in 200 μL of 1×PBS buffer and extracted with equal volumes of phenol and chloroform. The virion RNA was precipitated with ethanol, re-suspended in 100 μL of 1×PBS, and electroporated into about 2×10^7 baby hamster kidney (BHK) cells using 0.2-cm-gap cuvettes. The electroporation utilized 200 Ohms, 1.5 kV, and 25 μF. The cells were incubated at 37° C. for 12 hours in MEM supplemented with 10% fetal calf serum and the viral supernatants were harvested and assayed for the presence of infectious virus by plaque assay.

CT DNA = assay: Dark interaction of DPPZPHEN with CT DNA, UV-Vis absorption titration at 380 nm; type: binding, calf; details: CT DNA, from molar extinction coefficient at 380 nm
Method: as §1
Interaction of DPPZPHEN with DNA. […] An intrinsic binding constant of […] 3.4×10^5 M^−1 was calculated using the molar extinction coefficient at the λmax (380 nm) at each titration point.

φX-174 plasmid DNA = assay: Photonicking of φX-174 plasmid DNA, gel electrophoresis; type: biochemical
Method: Photolysis with φX-174 Plasmid DNA. Metal complex solutions (with or without quenchers) were saturated with oxygen or argon prior to irradiation. The solutions were further degassed after being mixed with the plasmid. The final solution concentrations were: DPPZPHEN ([…]), φX-174 plasmid DNA (205 μM in base pairs), superoxide dismutase (25 μg/mL), 2-propanol (0.5 M), mannitol (6.25 mM), histidine (8 mM).
Experiments were conducted as described in Example X to evaluate the amount photonicking that occurred in the dark and upon exposure to light for 37TMBP, 56TMBP, OCTBP, BISNMe2, TMOBP, TIOBP, TPBP, BISTAP and BISDPPZ.

Structure (SMILES): [Cl-].[Cl][Rh+]12([Cl])([N]3C=CC=c4ccc5c(c43)[N]1C=CC=5)[N]1C=CC=c3c1c1c(c4nc5ccccc5nc34)=CC=C[N]12 [DPPZPHEN, cis-dichloro(dipyrido[3,2a-2′3′c]phenazine)(1,10-phenantroline) rhodium(III) chloride]
- SINV capsid protein (CP) in transfected BHK cells (SINV genomic RNA): CP was not observed
- cell toxicity in the absence of light (M109 cells): no appreciable degree of cell toxicity
- inactivation rate constant k (simple hit theory) (SINV; 45 μM, 355 nm irradiation): 2.4×10^−19 photons^−1
- reduction in viral titer (SINV; 45 μM, 355 nm irradiation): 6 log
- effect of the metal complex on the virus in the dark (SINV; dark): unaffected
- rate of photoinactivation under oxygen versus nitrogen (SINV; oxygen or nitrogen): the same under either oxygen or nitrogen
- intrinsic binding constant (Keq, association constant with DNA) (CT DNA): 340000 M⁻¹
- frank nicks / nicking of φX-174 supercoiled plasmid DNA upon irradiation (φX-174 plasmid DNA; 311 nm irradiation, Example VIII): light dose dependent
- photonicking of φX-174 plasmid DNA (φX-174 plasmid DNA; Example IX, dark and upon exposure to light): found to photonick
- protection of the DNA from photonicking by ROS quenchers or argon (φX-174 plasmid DNA; oxygen-saturated solutions with quenchers, and under argon, relative to buffered control): no significant level of protection
